Data reported in US20250352615A1, “COMPOSITIONS AND METHODS FOR THE MODULATION OF PIEZO1 AND TRPV4” (Duke University, priority 2021, published 2025).

Tests used:
[1] = test system: pancreatic acini; experiment: Trypsinogen activation in pancreatic acini (BZiPAR); assay type: cell-based, mouse
Procedure: To visualize Piezo1-induced trypsinogen activation, acini were loaded with active trypsin enzyme substrate BZiPAR (10 μM). Na-HEPES buffer with 2 mM Ca^2+ was used during imaging. A Zeiss Axio observer Z1 with a high-sensitivity EMCCD camera with a ×40/0.75 EC-Plan-NeoFluar DIC objective was used to capture the Z-stack images with stack thickness of 3 μm at an interval of 12 seconds. The BZiPAR fluorescent wavelength Ex/Em was 498/521 nm. BZiPAR was excited at 470-510 nm and emission collected at 495-550 nm. The captured images were analyzed with MetaMorph software (Molecular Devices).

[2] = test system: human stellate cells; experiment: Gene expression (RT-PCR) in Yoda1-treated human stellate cells; assay type: cell-based
Procedure: Mouse and human stellate cells were prepared and maintained in culture as previously described Swain et al., JCI Insight 7: e158288 (2022). Summarized here: Mouse and human PSCs were isolated using collagenase digestion. Modified Krebs Henseleit Buffer (KHB) solution (100 mL) was prepared as described previously in Romac et al., Nat. Commun. 9(1): 1715 (2018). Pancreatic tissue was digested with 2 mg of collagenase NB 8 (SERVA, catalog 17456) dissolved in 10 mL of modified KHB solution containing 1 mg soybean trypsin inhibitor (SBTI 1-S; Millipore Sigma, catalog T9003) and 20 mg BSA (Thermo Fisher Scientific; BP1600-100). Digestion solution (5 mL) was used to inflate the pancreas. Pancreas with 5 mL of digestion solution was incubated in a shaking water bath for 10 minutes at 37° C. The solution was then discarded. The pancreas tissue was cut into small pieces and digested with fresh 5 mL digestion buffer. Tissue was incubated in a shaking water bath for 40 minutes at 37° C. The cells were then separated from tissue by pipetting up-down with a 10 mL pipette and passed sequentially through a 70 μm and a 40 μm cell strainer. The filtrate was centrifuged at 150×g for 3 minutes at room temperature. The cells were washed with 10 mL Leibovitz's media (Thermo Fisher Scientific, catalog 11415-064), passed through a 20 μm filter, and centrifuged at 80 g for 3 minutes at room temperature. The supernate was removed, and isolated stellate cells were plated on a thin-layered Matrigel-coated glass bottom culture plate (MatTek, P35G-0-14-C). Before plating the cells, Matrigel solution (Corning, catalog 354234) at a ratio of 1.5:100 DMEM/F12 (Thermo Fisher Scientific, catalog 11330-032) was poured onto the culture plate and incubated for 2 hours at 37° C. to form a thin layer of Matrigel coating. Matrigel mixture was removed, and the plate was washed with PBS before cells were plated. Cell culture media, DMEM/F12 with 5% FBS was used for mouse stellate cells. Fresh, human pancreatic tissue (provided by Duke University's BioRepository & Precision Pathology Center under IRB approval) was digested with collagenase as described above with modifications. Collagenase (2.5 mg) in 10 mL of modified KHB solution was used for digestion. The digested tissues were filtered through a 100 μm cell strainer. The cells were cultured with DMEM/F12 with 10% FBS in a Matrigel-coated plate. After 24 hours, the cell media was replaced with fresh media to remove unattached and dead cells. After 2 days, cells were immunostained for GFAP and used for experiments. Perinuclear fat droplets were stained with BODIPY 493/503 (4,4-Difluoro-1,3,5,7,8-Pentamethyl-4-Bora-3a,4a-Diaza-s-Indacene; Invitrogen, catalog D3922) to confirm stellate cell quiescence.
Yoda 1 was resuspended in DMSO at 25 mM stock solution. […]

[3] = test system: pancreatic acini; experiment: Cell death assays of pancreatic acini (LDH release, Live/Dead, live-cell imaging); assay type: cell-based
Procedure: The viability of pancreatic acini with Yoda1 and CCK treatments was analyzed using the Live/Dead Cell Imaging Kit (Thermo Fisher Scientific, catalog R37601) or the LDH Release Assay Kit (Promega, catalog G1780).

[4] = Yoda1, 24 hr, human stellate cells, preliminary

SMILES: Clc1cccc(Cl)c1CSc1nnc(-c2cnccn2)s1 [Yoda1]
- trypsin activation in acinar cells from Piezo1aci-KO mice ([1]; Yoda1): did not respond to Yoda1
- trypsin activation (BZiPAR fluorescence) ([1]; Yoda1 50 μM or CCK 10 nM): activated trypsin in pancreatic acini over time
- time to trypsin activation after application ([1]; Yoda1 50 μM, CCK 10 nM): ≤ 10 min
- expression of fibronectin and IL-6 ([2]; Yoda1 25 μM, 24 hr): increased expression of fibronectin and IL-6
- ACTA2 mRNA expression [2, 4]: decreases ACTA2
- CD10 mRNA expression [2, 4]: increases CD10 expression
- TRPV4 mRNA levels ([2]; human PSCs, 24 hr, Yoda1 5 μm and 25 μM): upregulates TRPV4 expression in PSCs
- acinar cell death, both Yoda1 and CCK vs individual application ([3]; Yoda1 50 μM + CCK 1 nM, WT acini): acinar cell death was greater
- acinar cell morphology by live-cell imaging ([3]; Yoda1 50 μM, WT acini): caused swelling of WT pancreatic acinar cells and release of zymogen granules from the basolateral surface and gradually ruptured the cell membrane
- response of acinar cells from Piezo1aci-KO mice (live-cell imaging) ([3]; Yoda1, Piezo1aci-KO acini): did not respond to Yoda1
